# From patent US7641919B2, “Anti-bacterial plant compositions” (priority 2001, dated 2010)
# Tests used:
# [1] = tested on: M. smegmatis 607 (ATCC); assay: agar-disk diffusion assay, zone of inhibition; format: cell-based, Mycobacterium smegmatis; conditions: HPLC fractions of methylene chloride extract; 6 mm disc; control 10 micrograms streptomycin
# [2] = tested on: E-Coli 25922; assay: zone of inhibition against E. coli; format: cell-based, Escherichia coli; conditions: HPLC fractions of methylene chloride extract; 6 mm disc; control 10 micrograms streptomycin
# Experimental: An HPLC separation and isolation of an active fraction was attempted. High Pressure Liquid Chromatography (HPLC) was performed using a Discovery RP-Amide C-16 Column, 15 cm long, 4.6 mm wide (Supelco, Bellefort, Pa.). An isocratic, i.e. steady concentration, of a polar solvent phase was used. The solvent phase consisted of dilute phosphoric acid in methanol. The flow rate was 2 ml/minute. Therefore exit is dependent on MW (larger MW exists later) and polarity. The more polar the compound, the quicker it solubilizes into the solvent, but it is retained longer in the static phase of the column which holds back the more polar compounds. The fractions were monitored by UV, at 254 nm wave-length. One to three fraction per plant extract were collected at the indicated times. […] See, for example, FIGS. 1-3. Based on consideration of the relative polarity and molecular weights of the compounds identified for the respective plants in the total methylene chloride extract, the compounds in the right-most column of table 5 “Additional Compounds” lists compounds which are not observed in the active fraction of the extract of the respective plants, but which are likely to be present in smaller quantities (“trace amounts”) in the active fraction and which might contribute to the anti-mycobacterial activity.
# [3] = tested on: M. tuberculosis 27294 (a streptomycin sensitive strain, ATCC); assay: BACTEC-460 growth inhibition (growth index, 14CO2); format: cell-based, Mycobacterium tuberculosis; conditions: positive control, 50 μg/ml
smiles,measurement,setting,value
[H]/N=C(/N)N[C@H]1[C@H](O)[C@@H](O)[C@H](O[C@@H]2O[C@@H](C)[C@](O)(C=O)[C@H]2O[C@@H]2O[C@@H](CO)[C@H](O)[C@@H](O)[C@@H]2NC)[C@@H](N/C(N)=N\[H])[C@@H]1O [Streptomycin],M. Smegmatis ATCC 607 ZOI (mm),[1],17 mm
same,E-Coli 25922 ZOI (mm),[2],14 mm
same,Δ G1 (growth index change),[3],Positive control Streptomycin (50 μg/ml) resulting in a Δ G1 of −2.8
